Results published in PMC5592744 (Frontiers in Microbiology, 2017).

Experiments:
[1] = test system: S. aureus biofilm formation; type: cell-based, Staphylococcus aureus
S. aureus USA 300 = type: cell-based, Staphylococcus aureus
SpA display in S. aureus = type: cell-based, Staphylococcus aureus
S. aureus [2] = test system: S. aureus; set-up: species or system C57BL/6J mice; conditions: mouse, in vivo
A549 cells [3] = test system: A549 cells
WT-SrtA = WT-SrtA (Staphylococcus aureus, UniProt Q2FV99); assay: biochemical; type: binding
S. aureus [4] = assay: microbe, parasite or virus in culture; type: cell-based; conditions: Staphylococcus aureus, read-out: minimum inhibitory concentration (MIC)
[5] = test system: S. aureus invasion of J774 cells; type: cell-based, Staphylococcus aureus
agrA gene = type: cell-based, Staphylococcus aureus
[6] = test system: adhesion of S. aureus to Fn; type: cell-based, Staphylococcus aureus
A549 cells [7] = type: cell-based
hla gene = type: cell-based, Staphylococcus aureus
S. aureus SrtA (WT-SrtA) = S. aureus SrtA (WT-SrtA) (Staphylococcus aureus, UniProt Q2FV99); assay: biochemical
Chain of S. aureus SrtA (WT-SrtA) (Q2FV99 60-206): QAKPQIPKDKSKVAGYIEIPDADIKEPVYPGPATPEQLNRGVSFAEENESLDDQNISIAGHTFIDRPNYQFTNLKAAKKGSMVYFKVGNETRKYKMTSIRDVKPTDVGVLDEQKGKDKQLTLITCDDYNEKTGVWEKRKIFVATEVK

Chain of WT-SrtA (Q2FV99 60-206): as above

O=C(/C=C/c1ccccc1)c1ccccc1 [chalcone]
biofilm formation, untreated vs. treated [1]: quite significant | growth of S. aureus USA 300 (S. aureus USA 300): not visibly affected | SpA display (SpA display in S. aureus): significant reductions | survival rate vs. group without treatment (S. aureus [2]): significantly higher | cytotoxic effect in A549 cells (A549 cells [3]): almost no cytotoxic effect | Kd (WT-SrtA): 16.4 µM | MIC (S. aureus [4]): > 4.86 mM | quantity of bacteria entering J774 cells [5]: significantly decreased | transcription level of the agrA gene (agrA gene): down-regulated | adhesion rate to Fn [6]: no inhibition was observed | Hla-induced A549 cell injury (Live/Dead) (A549 cells [7]): obvious reduction in cell injury | release of LDH into the supernatants (A549 cells [7]): significantly decrease | transcription level of the hla gene (hla gene): down-regulated | IC50 (S. aureus SrtA (WT-SrtA)): 53.2 µM
